Several values for one entry are separate records, joined by “and”; a condition that tells them apart may be missing. Equal values may be shown once. *1 amine or outer side, *2 acyl side, *3 side chain or, on linkers, in order; H or OH if unused. Where no end group is shown, it is not given here. [ ]: non-standard residue; d: D form. Benzoyl(5-NH,2-NO2) = O=C(c1cc(N[*:1])ccc1[N+](=O)[O-])[*:2]; 2Abz = Nc1ccccc1C(=O)O
Columns and labels:
Assay type in all cases: biochemical, human
[1] = tested on: proteolytic enzymes in urine from a subject suffering from liver cancer; test: Hydrolysis of the chromogenic substrate in urine from subjects with liver cancer (absorbance at 405 nm); settings: for Results of absorbance analysis (increase in absorbance, 405 nm): 37° C., 60 minutes, pH 8.0
Procedure: (§1) The activity of the novel compounds according to the invention was studied in a group of 20 subjects diagnosed with liver cancer using the representative compound according to the invention. […] The remaining compounds according to the invention are characterized by the analogous mechanism of action. For this purpose, the representative compound according to the invention, ABZ^1-Lys^2-Ser^3-Ser^4-Asp^5-ANB^6-NH2, was dissolved in dimethyl sulfoxide (at a concentration of 0.5 mg/mL) and then 50 μL of the solution was mixed with 120 μL of a buffer (200 mM Tris-HCl, pH 8.0) and 80 μL of urine from a subject suffering from liver cancer. The measurement was performed on a 96-well plate designed for measuring absorbance and each sample was analysed in triplicate at the temperature of 37° C. The duration of the measurement was 60 minutes. During the measurement, the wavelength characteristic for the chromophore (ANB-NH2) being released was monitored at the wavelength 405 nm (range 380-430 nm).
The observed magnitude of increase in absorbance in time is different for each of the examined samples.
Such a result may be due to the difference in the activity as well as the amount of enzymes responsible for the enzymatic cleavage (proteolysis). […] The result indicates the […] of proteolytic enzymes characteristic of liver cancer.

[2] = tested on: enzyme in the studied material (urine); test: Dependence of substrate hydrolysis on reaction pH; settings: FIG. 4
Procedure: Furthermore, measurements concerning the dependence of the proteolytic activity of the representative compound according to the invention on the reaction pH were performed.

[3] = tested on: urine samples taken from healthy persons; test: Hydrolysis of the chromogenic substrate in urine from healthy subjects (absorbance at 405 nm); settings: for Results of absorbance analysis (increase in absorbance, 405 nm): triplicate
[4] = tested on: urine taken from a person diagnosed with liver cancer; test: RP HPLC analysis of substrate cleavage in urine with liver cancer; settings: randomly selected urine from a person diagnosed with liver cancer
[5] = tested on: urine samples from patients with another neoplastic disease; test: Cleavage selectivity: substrate incubated with urine from patients with other cancers; settings: for Measurement 1-3 (increase in absorbance): urine, triplicate
Procedure: as §1
Furthermore, the dependence of the cleavage selectivity of the substrate, i.e. the compound according to the invention, on the cancer being examined, was studied. […] This indicates cleavage selectivity of the compounds according to the invention, which makes them suitable for the specific detection of enzymatic activity specific to liver cancer and specific diagnosis of liver cancer.

“ABZ-Lys-Ser-Ser-Asp-ANB-NH2 ([2Abz]KSSD-{Benzoyl(5-NH,2-NO2)-NH2}) [chromogenic/FRET peptide substrate; ABZ is 2-aminobenzoic acid, ANB-NH2 is amide of 5-amino-2-nitrobenzoic acid]” was tested, and the “Cleavage of the substrate in urine” value ([1]; all samples 1-20 from persons suffering from liver cancer) was “underwent cleavage”, the “Results of absorbance analysis (increase in absorbance, 405 nm)” value (shortened to “Results … (increase in absorbance, 405 nm)”) ([1]; urine sample W1, liver cancer, triplicate) was 0.03221 and 0.03351 and 0.02109 and the “Results … (increase in absorbance, 405 nm)” value ([1]; urine sample W2, liver cancer, triplicate) was 0.02276 and 0.02037 and 0.02884. For the same substance, the “Results … (increase in absorbance, 405 nm)” value ([1]; urine sample W4, liver cancer, triplicate) was 0.02897 and 0.02718 and 0.02812, the “Results … (increase in absorbance, 405 nm)” value ([1]; urine sample W5, liver cancer, triplicate) was 0.171 and 0.1445 and 0.1684 and the “Results … (increase in absorbance, 405 nm)” value ([1]; urine sample W6, liver cancer, triplicate) was 0.02035 and 0.01966 and 0.02513. The “Results … (increase in absorbance, 405 nm)” value ([1]; urine sample W8, liver cancer, triplicate) was 0.0186 and 0.0199 and 0.01818, the “Results … (increase in absorbance, 405 nm)” value ([1]; urine sample W9, liver cancer, triplicate) was 0.0313 and 0.02635 and 0.0275 and the “Results … (increase in absorbance, 405 nm)” value ([1]; urine sample W10, liver cancer, triplicate) was 0.04583 and 0.03322 and 0.03755. For the same substance, the “Results … (increase in absorbance, 405 nm)” value ([1]; urine sample W11, liver cancer, triplicate) was 0.02091 and 0.01156 and 0.01536, the “Results … (increase in absorbance, 405 nm)” value ([1]; urine sample W12, liver cancer, triplicate) was 0.03055 and 0.02126 and 0.0183 and the “Results … (increase in absorbance, 405 nm)” value ([1]; urine sample W13, liver cancer, triplicate) was 0.01583 and 0.01383 and 0.01431. The “Results … (increase in absorbance, 405 nm)” value ([1]; urine sample W14, liver cancer, triplicate) was 0.00394 and 0.00525 and 0.00441, the “Results … (increase in absorbance, 405 nm)” value ([1]; urine sample W15, liver cancer, triplicate) was 0.01622 and 0.01718 and 0.01233 and the “Results … (increase in absorbance, 405 nm)” value ([1]; urine sample W16, liver cancer, triplicate) was 0.01265 and 0.01251 and 0.00722. The “Results … (increase in absorbance, 405 nm)” value ([1]; urine sample W17, liver cancer, triplicate) was 0.0012 and 0.0018 and 0.0015, the “Results … (increase in absorbance, 405 nm)” value ([1]; urine sample W18, liver cancer, triplicate) was 0.01937 and 0.01539 and 0.01955 and the “Results … (increase in absorbance, 405 nm)” value ([1]; urine sample W19, liver cancer, triplicate) was 0.0091 and 0.0093 and 0.0089. For the same substance, the “Results … (increase in absorbance, 405 nm)” value ([1]; urine sample W20, liver cancer, triplicate) was 0.1528 and 0.1867 and 0.1909, the “Measurement 1-3 (increase in absorbance)” value ([1]; urine, cancer location Liver, selectivity test of Table 2, triplicate) was 0.0067 and 0.0072 and 0.0056 and the “Dependence of hydrolysis level on pH” value [2] was “maximum activity at alkaline pH”. For the same substance, the “Results … (increase in absorbance, 405 nm)” value ([3]; urine sample 21, healthy person) was 0.000000, the “Results … (increase in absorbance, 405 nm)” value ([3]; urine sample 22, healthy person) was 0.000000 and the “Results … (increase in absorbance, 405 nm)” value ([3]; urine sample 23, healthy person) was 0.000000. The “Results … (increase in absorbance, 405 nm)” value ([3]; urine sample 24, healthy person) was 0.000000, the “Results … (increase in absorbance, 405 nm)” value ([3]; urine sample 25, healthy person) was 0.000000 and the “Results … (increase in absorbance, 405 nm)” value ([3]; urine sample 26, healthy person) was 0.000000. The “Results … (increase in absorbance, 405 nm)” value ([3]; urine sample 27, healthy person) was 0.000000, the “Results … (increase in absorbance, 405 nm)” value ([3]; urine sample 28, healthy person) was 0.000000 and the “Results … (increase in absorbance, 405 nm)” value ([3]; urine sample 29, healthy person) was 0.000000. The “Results … (increase in absorbance, 405 nm)” value ([3]; urine sample 30, healthy person) was 0.000000, the “Results … (increase in absorbance, 405 nm)” value ([3]; urine sample 31, healthy person) was 0.000000 and the “Results … (increase in absorbance, 405 nm)” value ([3]; urine sample 32, healthy person) was 0.000000. The “Results … (increase in absorbance, 405 nm)” value ([3]; urine sample 33, healthy person) was 0.000000, the “Results … (increase in absorbance, 405 nm)” value ([3]; urine sample 34, healthy person) was 0.000000 and the “Results … (increase in absorbance, 405 nm)” value ([3]; urine sample 35, healthy person) was 0.000000. The “Results … (increase in absorbance, 405 nm)” value ([3]; urine sample 36, healthy person) was 0.000000, the “Results … (increase in absorbance, 405 nm)” value ([3]; urine sample 37, healthy person) was 0.000000 and the “Results … (increase in absorbance, 405 nm)” value ([3]; urine sample 38, healthy person) was 0.000000. The “Results … (increase in absorbance, 405 nm)” value ([3]; urine sample 39, healthy person) was 0.000000, the “Results … (increase in absorbance, 405 nm)” value ([3]; urine sample 40, healthy person) was 0.000000 and the “Increase in absorbance / hydrolysis in urine” value ([3]; urine samples 21 to 40 from healthy persons) was “does not lead to an increase in absorbance”. For the same substance, the “Cleavage products of the substrate (RP HPLC)” value [4] was “cleaves into the peptide fragment ABZ-Lys-Ser-Ser-Asp-OH and the chromophore group of the compound (ANB-NH2)”, the “Cleavage / increase in absorbance in urine of other cancers” value ([5]; testicular, intestine, kidney, prostate, pancreatic, bile duct, lung, ovarian and rectum cancer) was “is not subject to cleavage” and the “Measurement 1-3 (increase in absorbance)” value ([5]; cancer location Intestine) was 0. The “Measurement 1-3 (increase in absorbance)” value ([5]; cancer location Kidney) was 0, the “Measurement 1-3 (increase in absorbance)” value ([5]; cancer location Lung) was 0 and the “Measurement 1-3 (increase in absorbance)” value ([5]; cancer location Ovary) was 0. The “Measurement 1-3 (increase in absorbance)” value ([5]; cancer location Pancreas) was 0, the “Measurement 1-3 (increase in absorbance)” value ([5]; cancer location Prostate) was 0 and the “Measurement 1-3 (increase in absorbance)” value ([5]; cancer location Rectum) was 0. The “Measurement 1-3 (increase in absorbance)” value ([5]; cancer location Testicle) was 0 and the “Measurement 1-3 (increase in absorbance)” value ([5]; cancer location bile ducts) was 0.
